From ChEMBL document CHEMBL4414583, “Octahydro-Protoberberine and Protoemetine-Type Alkaloids from the Stems of Alangium salviifolium and Their Cytotoxicity” (J Nat Prod, 2019)

What was measured:
Type in all cases: functional, cell-based
A549 = assay: Cytotoxicity against human A549 cells assessed as reduction in cell viability incubated for 72 hrs by MTT assay; conditions: A549, 72 h
HeLa = assay: Cytotoxicity against human HeLa cells assessed as reduction in cell viability incubated for 72 hrs by MTT assay
SK-OV-3 = assay: Cytotoxicity against human SKOV3 cells assessed as reduction in cell viability incubated for 72 hrs by MTT assay; conditions: SK-OV-3, 72 h

## COc1cc2c(cc1O)[C@@H]1C[C@@H]3CC=CC[C@H]3CN1CC2
A549
  IC50: 12.5 µM
HeLa
  IC50: 9.2 µM
SK-OV-3
  IC50: 13.9 µM

## CC[C@H]1CN2CCc3c(cc(OC)c(OC)c3O)[C@@H]2C[C@@H]1C/C=[N+](/[O-])CC
A549
  IC50: > 10 µM
HeLa
  IC50: > 10 µM
SK-OV-3
  IC50: 5.2 µM

## CC[C@H]1CN2CCc3cc(OC)c(OC)cc3[C@@H]2C[C@@H]1C[C@H]1NCCc2c1[nH]c1ccc(O)cc21 [TUBULOSINE]
A549
  IC50: 2.1 µM
HeLa
  IC50: > 10 µM
SK-OV-3
  IC50: 0.4 µM

## CC[C@H]1CN2CCc3c(cc(OC)c(OC)c3O)[C@@H]2C[C@@H]1CCO
A549
  IC50: 2.1 µM
HeLa
  IC50: 5.3 µM
SK-OV-3
  IC50: 3.6 µM

## CC[C@H]1CN2CCc3cc(OC)c(OC)cc3[C@@H]2C[C@@H]1CCO
A549
  IC50: 0.3 µM
HeLa
  IC50: 1.2 µM
SK-OV-3
  IC50: 0.1 µM

## CO[C@@H]1C=C[C@@]23c4cc5c(cc4CN(C[C@@H]2O)[C@H]3C1)OCO5 [(+)-HAEMANTHAMINE]
A549
  IC50: 3 µM
HeLa
  IC50: 1.3 µM
SK-OV-3
  IC50: 3.7 µM

## CC[C@H]1CN2CCc3c(cc(OC)c(OC)c3O)[C@@H]2C[C@@H]1C[C@H]1NCCc2c1[nH]c1ccccc21
A549
  IC50: 3 µM
HeLa
  IC50: 8.2 µM
SK-OV-3
  IC50: 0.2 µM

## CC[C@H]1CN2CCc3cc(OC)c(OC)cc3[C@@H]2C[C@@H]1C[C@H]1NCCc2cc(O)c(OC)cc21 [CEPHAELINE]
A549
  IC50: 3 µM
HeLa
  IC50: 7.6 µM
SK-OV-3
  IC50: 0.1 µM

## CC[C@H]1CN2CCc3cc(OC)c(OC)cc3[C@@H]2C[C@@H]1C[C@H]1NCCc2c1[nH]c1ccccc21
HeLa
  IC50: 0.1 µM
SK-OV-3
  IC50: 0.003 µM

## CC[C@H]1CN2CCc3cc(OC)c(OC)cc3[C@@H]2C[C@@H]1C[C@@H]1NCCc2cc(O)c(OC)cc21 [ISOCEPHAELINE]
A549
  IC50: 2.7 µM
HeLa
  IC50: 9.4 µM
SK-OV-3
  IC50: 3.9 µM

## CC[C@H]1CN2CCc3cc(OC)c(O)cc3[C@@H]2C[C@@H]1CCO
A549
  IC50: 0.2 µM
HeLa
  IC50: 0.01 µM
SK-OV-3
  IC50: 0.06 µM
